# Tests used:
# Lek and Fyn in T cells = conditions: cited from earlier work
# T. gondii [1] = conditions: mice with ocular and cerebral toxoplasmosis, dependent on Beclin 1; cited from earlier work
# T. gondii [2] = experiment: In vitro infection of mammalian cells with T. gondii tachyzoites, counted by light microscopy; assay type: cell-based, Toxoplasma gondii; conditions: CHO cells, 0.3 μM or 1 μM, 2 or 24 hours
# Procedure: Chinese Hamster Ovary (CHO; a gift from Cathleen Carlin, Case Western Reserve University), human retinal pigment epithelial (RPE) cells (ARPE-19; American Type Culture Collection, ATCC, Manassas, VA), and mouse endothelial […]) transduced with Src shRNA or control encoding lentiviral vectors were cultured in complete media. Mouse brain endothelial cells expressing WT or DN EGFR were isolated as described. Endothelial cells were cultured in medium containing Endothelial Cell Growth Supplement (ECGS; Sigma-Aldrich, St Louis, MO). Mammalian cells were infected with tachyzoites of the RH or PTG stains of T. gondii; RH strain was used unless otherwise indicated. Cells were fixed at 2 hours or 24 hours followed by staining using Hema 3 Manual Staining System (Fisherbrand, Hampton, NH). At least 100 to 200 cells per monolayer were counted by examining a minimum of 5 random areas per monolayer. The percentage of infected cells, tachyzoites and vacuoles per 100 cells, and tachyzoites per vacuole were counted using light microscopy. Three independent experiments were performed. Saracatinib, Gefitinib (LC Laboratories, Woburn, MA) and lysosomal inhibitors leupeptin and pepstatin (10 μM; Millipore Sigma, Burlington, MA) were used in specified experiments. Each cell monolayer was generated and infected independently.
smiles,measurement,setting,value
"Cc1nc(Nc2ncc(C(=O)Nc3c(C)cccc3Cl)s2)cc(N2CCN(CCO)CC2)n1.O [Dasatinib, N-(2-chloro-6-methylphenyl)-2-[[6-[4-(2-hydroxyethyl)-1-piperazinyl]-2-methyl-4-pyrimidinyl]amino]-5-thiazole carboxamide monohydrate]",IFN-γ production by T cells,Lek and Fyn in T cells,impaired
same,activity of Lek and Fyn in T cells,Lek and Fyn in T cells,reduced
COc1cc2ncnc(Nc3ccc(F)c(Cl)c3)c2cc1OCCCN1CCOCC1 [Gefitinib],parasite load and histopathology in the eye and brain,T. gondii [1],partial reduction
Cc1ccc(NC(=O)c2ccc(CN3CCN(C)CC3)cc2)cc1Nc1nccc(-c2cccnc2)n1 [Imatinib],"parasite survival (infected cells, tachyzoites per 100 cells)",T. gondii [2],No significant difference
